Assay results: US12390460B2, “Treatment for obesity” (1GLOBE BIOMEDICAL CO., LTD., priority 2018, dated 2025)

Columns and labels:
[1] = test system: UCP1 and DIO2 in brown adipose tissue (BAT); test: Quantitative real-time PCR of markers of thermogenic brown adipose tissue activation; format: in vivo; details: HFD-fed mice, vs vehicle; FIG. 2C
Excerpt: Finally, the recruitment of brown adipose tissue (BAT) was examined. BAT is a well-know site for dissipating excess energy to prevent weight gain by inducing thermogenesis. Importantly, the expression levels of the two investigated markers of thermogenic BAT activation—UCP1 and DIO2—were not different in the two HFD-fed groups when measured by quantitative real-time PCR (FIG. 2C), indicating similar levels of BAT activation in response to HFD. These findings led us to conclude that for the weigh loss seen in the Compound 14-3-treated HFD-fed mice, other mechanisms are probably responsible.

[2] = test system: genes involved in lipid transport and degradation, beta-oxidation, de novo lipogenesis, and insulin sensitivity (RORA, ACADM, ACOX1, MLYCD, PEPCK); test: Gene expression in visceral fat (eWAT); format: in vivo; details: HFD-fed mice
Excerpt: To get a more detailed insight into the metabolic changes caused by the Compound 14-3 treatment in the visceral fat (eWAT), the expression of genes involved in lipid transport and degradation, beta-oxidation, de novo lipogenesis, and insulin sensitivity were examined.
Acyl-Coenzyme A dehydrogenase, C-4 to C-12 straight chain (ACADM, FIG. 6B) is known to be important for the degradation of medium chain fatty acids.
Similarly, malonyl CoA decarboxylase (MLYCD, FIG. 6D) has been induced by the Compound 14-3 treatment. This event is linked to decreased malonyl CoA synthesis and the suppression of de novo lipogenesis by Compound 14-3.

[3] = Oral glucose tolerance test (OGTT); format: in vivo; details: HFD-fed mice, 5th week of treatment, vs vehicle
Procedure: The described beneficial changes in body composition improved all aspects of the metabolic syndrome, including the underlying insulin resistance. Therefore, to fully characterize this animal model, we also assessed insulin signaling on live animals on the 5th week of Compound 14-3-treatment by conducting oral glucose tolerance test (OGTT, FIGS. 9A-C) and intraperitoneal insulin tolerance test (ITT, FIGS. 9D-E).
Both the OGTT and ITT tests were carried out on mice that have been starved for 6 hours before the procedure to eliminate the effect of the last meal on the blood glucose level. In both tests, we measured fasting glucose levels 30 min before the start of the assay to define baseline conditions. In the OGTT assay, the mice had been gavaged with 2 g/kg glucose, dissolved in water. After administration of the glucose, blood glucose level was measured via tail vein nicking using a commercially available glucometer. The obtained data was plotted against time (FIG. 9A) and the area under curve (AUC) calculations were carried out (FIG. 9B). Additionally, the blood glucose level measured at 120 min after gavage was used to describe the overall glucose tolerance of the mice (FIG. 9C).

[4] = test system: hypothalamic molecular mediators of hunger and satiety signaling (AgRP, NPY, POMC); test: Quantitative real-time PCR of hypothalamic hunger and satiety genes; format: in vivo; details: HFD-fed mice, FIG. 2B
Procedure: Referring now to FIG. 2B, hypothalamic molecular mediators of hunger and satiety signaling in hypothalamus were analyzed using quantitative real-time PCR with commercially available probes (Thermo Fisher Scientific Inc., Waltham, MA). AgRP and NPY are hunger-inducing signals, while POMC is powerful satiety-inducing signal in the hypothalamus. […] This was in agreement with the food intake information that we collected over the course of the experiment. […] Therefore, it was concluded that the expression levels of hypothalamic hunger or satiety genes cannot explain the marked weight loss of the Compound-14-3-treated mice on HFD and that decrease in satiety was secondary to prolonged negative energy balance in the same group.

[5] = test system: white adipose tissue adipocytes; test: H & E staining and morphometry of eWAT and iWAT adipocytes; format: in vivo; details: HFD-fed mice
[6] = test system: intestinal fat absorption; test: Fecal triglyceride content (biochemical kit) in HFD-fed mice; format: in vivo; details: 5th week of treatment, vs vehicle, FIG. 2A
Procedure: Referring to FIG. 2A, the fecal triglyceride content was assessed using a standard biochemical kit (Biovision, Mountain View, CA). Fecal samples were collected on the 5th week of the treatment over the course of three days. The fecal triglyceride content was normalized to fecal mass. […] Therefore, this mechanism cannot explain the observed significant weight loss in the drug-treated mice.

[7] = Fat pad weights at euthanasia (body composition); format: in vivo; details: HFD-fed mice at euthanasia
Excerpt: In agreement with effects of Compound 14-3 seen in the above examples, favorable changes in the body composition of Compound 14-3-treated and HFD-fed mice were also observed at the time of euthanasia through gross examination.
The former anatomical site represents visceral fat depos, while the latter belongs to subcutaneous fat depo from the perspective of human health. Both of these changes were considered very substantial and beneficial in the anti-obesity effect profile of the compound of the invention.

[8] = Body weight, food/water intake and adverse effects in modified high-fat diet (HFD) obese mice; format: in vivo, C57B1/6J mice
Excerpt: In order to assess the in vivo efficacy of Compound 14-3, a preferred embodiment of the compound of the invention, in treating and ameliorating obesity and related diseases like the metabolic syndrome, a previously used modified high-fat diet (HFD) was employed to induce obesity and severe fatty liver disease in mice (Derdak et al. J of Hepatology 2013; 58(4):785-91).
Five-week-old male, C57B1/6J mice (12-18 per group, Jackson Laboratory, Bar Harbor, ME) were fed ad libitum with a modified high-fat or control diet (Bioserv, Frenchtown, NJ) for 15 weeks. […] We had verified the efficacy of this diet to induce obesity in various pilot studies. At the end of the 15-week long feeding regimen, this diet caused substantial weight gain in these mice.
After 15 weeks on the modified HFD, the mice were put on a Compound 14-3 (or control vehicle) dosing regimen, in which the introductory 5 mg/kg (p.o., t.i.w. for the first 3 weeks) dose was followed by the administration of 10 mg/kg (p.o., t.i.w. for an additional 5 weeks) therapeutic dose. During the course of the drug treatment, the animals were monitored daily for changes in body weight, food/water intake, and any adverse effects.

[9] = mice, 5 then 10 mg/kg p.o. t.i.w.

Structure (SMILES): CCN(CC)CCNC(=O)c1c(C)[nH]c(/C=C2\C(=O)Nc3ccc(-c4csc(-c5ccccc5)n4)cc32)c1C [Compound 14-3]
- DIO2 expression level in BAT [1]: not different
- UCP1 expression level in BAT [1]: not different
- RORA expression in eWAT ([2]; FIG. 6A): significantly increased
- ACADM gene expression in eWAT ([2]; FIG. 6B): Increased
- ACOX1 expression in eWAT ([2]; FIG. 6C): increased
- MLYCD expression in eWAT ([2]; FIG. 6D): induced
- PEPCK gene expression in eWAT ([2]; FIG. 6E): comparable to that of the control-fed mice
- glucose tolerance (OGTT) ([3]; 6 h starved, 2 g/kg glucose gavage, FIG. 9A): markedly improved
- area under curve during OGTT ([3]; FIG. 9B): smaller
- blood glucose level at 120 min during OGTT ([3]; FIG. 9C): decreased
- satiety-inducing POMC expression in hypothalamus ([4]; vs corresponding control group): significant decrease
- expression of appetite-inducing genes (AgRP, NPY) in hypothalamus ([4]; vs vehicle): no significant difference
- size of eWAT adipocytes ([5]; H & E staining of eWAT, FIG. 4A-4B): decrease in the size of adipocytes
- size of iWAT adipocytes ([5]; H & E staining of iWAT, morphometry, FIG. 5A-5B): decrease in size of adipocytes
- fecal triglyceride content normalized to fecal mass [6]: little difference
- epididymal fat pad weights ([7]; FIG. 3A): markedly decreased
- epididymal fat/body weight ratio ([7]; FIG. 3B): markedly decreased
- unilateral (inguinal) fat pad weights ([7]; FIG. 3C): markedly decreased
- inguinal fat/body weight ratio ([7]; FIG. 3D): markedly decreased
- daily normalized caloric (food) intake ([8]; HFD-fed mice during treatment, FIG. 1C): not linked to decreased food intake
- daily normalized water intake ([8]; HFD-fed mice during treatment, FIG. 1D): not linked to decreased
- change in body weight during treatment ([8]; HFD-fed mice, 5 mg/kg p.o. t.i.w. 3 weeks then 10 mg/kg p.o. t.i.w. 5 weeks, FIG. 1A): not only prevented additional weight gain in the mice on HFD, but also triggered a gradual weight loss
- difference in body weight vs control-vehicle-treated mice on HFD at the time of euthanasia ([8]; HFD-fed mice, 5 then 10 mg/kg p.o. t.i.w., 8 weeks, FIG. 1B): ~20%
- behaviors or activities [8, 9]: No changes in behaviors or activities were observed
- side effects [8, 9]: temporary, self-resolving, mild diarrhea seen in a couple of mice at the initiation of drug treatment
